Assays:
[1] = tested on: isolated aortic rings; experiment: tPA induced vasodilation: phenylephrine contraction of isolated aortic rings; details: rtPA 1 nM, peptide 100 nM; EC50 of phenylephrine contraction; 3 experiments
[2] = target: rtPA (Homo sapiens, UniProt P00750); experiment: Plasminogen activator activity; format: biochemical; details: Glu-plasminogen 100 nM, Spectrazyme PL 500 μM, PBS, 37°C, A405, 3 experiments
[3] = tested on: BBB permeability; experiment: BBB permeability post ischemia; format: in vivo, rat; details: Evans blue, 12 animals/group
[4] = for solubility in an aqueous environment: qualitative
[5] = tested on: BBB permeability; experiment: BBB permeability by extravasation of radiolabeled fibrinogen in rats; format: in vivo, rat; details: PAI-1 or peptide 1 mg/kg IV together with rtPA 1 mg/kg, 6 animals/group
[6] = tested on: Sprague-Dawley rats; details: rat, in vivo

Chain of rtPA (P00750 36-562): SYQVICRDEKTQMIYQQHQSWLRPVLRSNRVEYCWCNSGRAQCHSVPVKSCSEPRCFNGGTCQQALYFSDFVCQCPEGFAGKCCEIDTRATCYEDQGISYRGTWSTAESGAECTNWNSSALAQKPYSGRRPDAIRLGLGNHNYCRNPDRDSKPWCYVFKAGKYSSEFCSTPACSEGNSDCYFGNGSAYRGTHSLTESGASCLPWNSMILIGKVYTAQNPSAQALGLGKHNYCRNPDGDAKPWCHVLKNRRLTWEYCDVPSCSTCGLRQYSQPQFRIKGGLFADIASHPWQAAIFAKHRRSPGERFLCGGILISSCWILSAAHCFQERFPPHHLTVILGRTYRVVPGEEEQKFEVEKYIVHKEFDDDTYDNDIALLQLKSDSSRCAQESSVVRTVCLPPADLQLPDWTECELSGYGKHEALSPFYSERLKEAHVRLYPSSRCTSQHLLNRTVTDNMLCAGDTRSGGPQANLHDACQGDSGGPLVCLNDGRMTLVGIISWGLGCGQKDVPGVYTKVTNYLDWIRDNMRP

Row | Compound | inhibition of rtPA-induced vasodilation [1] | effect on the catalytic activity of rtPA (plasminogen activation) [2] | inhibition of the late effect of rtPA on BBB permeability ([3]; peptide together with rtPA three hours after the filament was withdrawn) | solubility in an aqueous environment [4] | inhibition of rtPA-induced permeation of radiolabeled fibrinogen [5] | effect on the catalytic activity of rtPA (plasminogen activation) ([2]; listed as 18-aa- Phe^383) | maximal solubility ([4]; lyophilized peptide resuspended in 50% ethanol at 37°C, vortexed) | BBB permeability post tMCAO ([3]; rtPA three hours after the filament was withdrawn) | effect of rtPA on mortality [6] | effect of rtPA on neurological severity score (NSS) [6] | mortality [6]
1 | CC[C@H](C)[C@H](NC(=O)[C@H](CCC(=O)O)NC(=O)[C@H](CCC(=O)O)NC(=O)[C@@H]1CCCN1C(=O)[C@H](C)NC(=O)[C@H](CCSC)NC(=O)[C@H](CCCNC(=N)N)NC(C)=O)C(=O)N[C@H](C(=O)N[C@@H](CCSC)C(=O)N[C@@H](CC(=O)O)C(=O)N[C@@H](CCCNC(=N)N)C(=O)N1CCC[C@H]1C(=O)N[C@@H](Cc1ccccc1)C(=O)N[C@@H](CC(C)C)C(=O)N[C@@H](Cc1ccc(O)cc1)C(=O)N[C@H](C(=O)N[C@H](C(=O)N[C@@H](CCCNC(=N)N)C(N)=O)C(C)C)C(C)C)[C@@H](C)CC [18-aa-Tyr^383] | inhibited rtPA-induced vasodilation | without inhibiting the catalytic activity of rtPA | 96.7% | more soluble in an aqueous environment than the original sequence | – | – | – | – | – | – | –
2 | CC[C@H](C)[C@H](NC(=O)[C@H](CCC(=O)O)NC(=O)[C@H](CCC(=O)O)NC(=O)[C@@H]1CCCN1C(=O)[C@H](C)NC(=O)[C@H](CCSC)NC(=O)[C@H](CCCNC(=N)N)NC(C)=O)C(=O)N[C@H](C(=O)N[C@@H](CCSC)C(=O)N[C@@H](CC(=O)O)C(=O)N[C@@H](CCCNC(=N)N)C(=O)N1CCC[C@H]1C(=O)N[C@@H](Cc1ccccc1)C(=O)N[C@@H](CC(C)C)C(=O)N[C@@H](Cc1ccccc1)C(=O)N[C@H](C(=O)N[C@H](C(=O)N[C@@H](CCCNC(=N)N)C(N)=O)C(C)C)C(C)C)[C@@H](C)CC [18-aa] | inhibited vasodilation | without affecting the catalytic activity of rtPA | – | relatively insoluble | inhibited | without inhibiting the catalytic activity of rtPA | 200 µg/mL | – | – | – | –
3 | Ac-RMAPEEIIMDR-NH2 [11-aa] | inhibited vasodilation | without affecting the catalytic activity of rtPA | – | – | – | – | – | – | – | – | –
4 | rtPA | – | – | – | – | – | – | – | re-opened the BBB | increased mortality | aggravated the neurological disability | 28.6±4.2%
